Measurements: patent publication US10151975B2, “Lithographic printing plate precursor” (AGFA NV, priority 2013, dated 2018)

Test: Solubility of the compounds: visual homogeneity of mixture in aqueous buffer pH 7
Assay type: physicochemical
Design: key to Visual homogeneity After 1 hour / Visual homogeneity After 1 day / Visual homogeneity After 4 days / Visual homogeneity After 1 week / Visual homogeneity After 2 weeks: −: heterogeneous mixture; +: homogeneous mixture
Conditions: for Time after which the mixture becomes homogeneous: 100 mg compound in 5 ml aqueous buffer pH = 7; for Visual homogeneity After 1 week / Visual homogeneity After 2 weeks / Visual homogeneity After 1 hour / Visual homogeneity After 1 day / Visual homogeneity After 4 days: 100 mg compound in 5 ml aqueous buffer pH = 7, room temperature
Description: Solubility of the Compounds
100 mg of the inventive and comparative compounds were added to 5 ml of a CertiPUR pH=7 buffer solution available from Merck. The mixture was gently stirred at room temperature and the homogeneity of the mixture was evaluated visually after different times: […]

| Compound | Time after which the mixture becomes homogeneous | Visual homogeneity After 1 week | Visual homogeneity After 2 weeks | Visual homogeneity After 1 hour | Visual homogeneity After 1 day | Visual homogeneity After 4 days |
| --- | --- | --- | --- | --- | --- | --- |
| C=C(C)C(=O)OCCOC(=O)C(=O)OCCOC(=O)C(=C)C [Compound M-1] | 1 week | + | + | − | − | − |
| C=CC(=O)OCCCCOC(=C)C(=O)OCCCCOC(=O)C=C [Compound M-2] | 1 week | + | + | − | − | − |
| C=CC(=O)NCCOC(=O)C(=O)OCCNC(=O)C=C [Compound M-3] | 1 days | + | + | − | + | + |
| C=C(C)C(=O)OCCCNC(=O)C(=O)NCCCOC(=O)C(=C)C [Compound M-4] |  | − | − | − | − | − |
| C=C(C)C(=O)OCCOC(=O)NCCC(C)CC(C)(C)CNC(=O)OCCOC(=O)C(=C)C (centres unmarked) [Compound M-5] |  | − | − | − | − | − |
| C=CC(=O)OCCn1c(=O)n(CCOC(=O)C=C)c(=O)n(CCOC(=O)C=C)c1=O [Compound M-6] |  | − | − | − | − | − |
| C=CC(=O)OCCOCCOc1ccc(C(C)(C)c2ccc(OCCOC(=O)C=C)cc2)cc1 [Compound M-7] |  | − | − | − | − | − |
